Source: US20100062492A1, “Method For Preparing Icariside II, Cosmetic Composition Containing The Same and the Use Thereof For Skin Whitening” (Amorepacific Corporation, priority 2006, published 2010)

What was measured:
[1] = tested on: alpha-glucosidase (Sigma); assay: Test of alpha-glucosidase inhibitory effect; type: biochemical; conditions: 0.01 ml of 10 mg/ml sample; 50 U/ml alpha-glucosidase; 5 mM p-nitrophenyl-α-D-glucopyranoside, 37° C., 5 minutes; absorbance at 405 nm; untreated group = 100.0
Description: In this regard, the deoxynojirimycin was used as a positive control group. Each of the samples was measured for absorbance at 405 nm to determine initial absorbance, and 0.05 ml of 5 mM p-nitrophenyl-α-D-glucopyranoside as a substrate was added thereto and subjected to an enzymatic reaction at 37° C. for 5 minutes. Then, each sample was measured for absorbance at 405 nm, and the enzyme activity inhibition thereof was calculated according to Math Figure 1. Alpha-glucosidase activity inhibition (%)=100−(absorbance of each test sample/absorbance of control group×100) [Math Figure 1]

human skin = assay: Test of whitening effect on human skin after UVB-induced blackness; type: in vivo; conditions: 1% solution in 1,3-butyleneglycol:ethanol=7:3 applied to UVB-irradiated upper arm of 12 healthy men, 10 weeks; ΔL* higher than about 1.5 = whitening effect
Description: First, a perforated opaque tape having a diameter of 1.5 cm was attached to the upper arm of each of 12 healthy men. Then, UV rays (UVB) were irradiated to each of the subjects at a dose 1.5-2 times higher than the minimal erythema dose of each subject, thus inducing skin's blackness.
After the UV irradiation, each of a 1% solution of icariside (1,3-butyleneglycol:ethanol=7:3, as a vehicle), prepared in Example 1, a 1% solution of hydroquinone, a 1% solution of vehicle (negative control group), was applied to the skin of each subject. […] The skin color was measured with a colorimeter (Minolta, Japan) at a 1-week interval.
ΔL*=L* value at time point of completion of application−L* value at time point of start of application [Math Figure 2]

[2] = tested on: tyrosinase in human melanoma cell HM3KO cells; assay: Effect on glycosylation of human melanoma cell tyrosinase (endoglycosidase H digestion, electrophoresis, immunodetection); type: cell-based; conditions: HM3KO cells cultured to confluency with 0.05% sample; about 72 kD = normally glycosylated, about 60 kD = glycosylation inhibited
Description: In order to examine the effect of icariside II on the glycosylation of tyrosinase in human melanoma cells, the following test was carried out. First, human melanoma cell HM3KO cells (Y. Funasaka, Department of dermatology, Kobe university school of medicine, 5-1 Kusunoki-cho 7-chrome, Chuo-ku, Kobe 650, Japan) were cultured in a minimum essential medium (MEM), containing 10% bovine fetal serum, under conditions of 37° C. and 5% CO2. The cultured cells were placed in 75 cm^2 flasks at a cell density of 3×10^5 cells and left to stand overnight, such that the cells adhered to the flask wall. From the next day, the medium was replaced with a fresh medium, containing each of icariin icariside II of Example 1 and deoxynojirimycin in an amount of 0.05%. Herein, the deoxynojirimycin was used as a positive control group. The medium was replaced with a fresh medium containing each of the samples at a 1-2-day interval, and the cells were cultured to confluency in the flasks. When the cells reached confluency, the cells were collected, added to lysis buffer (2% CHAPS in 50 mM Hepes and 200 mM NaCl, pH 7.5, protease inhibitors) and ultrasonically disrupted. The disrupted cell solution was centrifuged at 4° C. and 12000 rpm for 10 minutes, unbroken cells and melanin were separated and removed, and only the supernatant was collected. Endoglycosidase H (125 units) was added to the supernatant (protein amount: […]), and the supernatant was subjected to an enzymatic reaction at 37° C. for 1 hour. Then, proteins in the supernatant were separated according to size by electrophoresis. Among the proteins separated by electrophoresis, tyrosinase could be observed by an immune reaction with an antibody. […]

Structure (SMILES) | Activity inhibition (%) [1] [%] | Lightless (ΔL*) of skin color (human skin) | size of tyrosinase after endoglycosidase H treatment (FIG. 1) [2]
COc1ccc(-c2oc3c(CC=C(C)C)c(O)cc(O)c3c(=O)c2O[C@@H]2O[C@H](C)[C@@H](O)[C@H](O)[C@@H]2O)cc1 [Example 3, icariside II] | 37.5 |  | 
Oc1ccc(O)cc1 [Hydroquinone, hydroquinone, reference compound] |  | 1.90 ± 0.11 | 
COc1ccc(-c2oc3c(CC=C(C)C)c(O[C@@H]4O[C@H](CO)[C@@H](O)[C@H](O)[C@H]4O)cc(O)c3c(=O)c2O[C@@H]2O[C@@H](C)[C@H](O)[C@@H](O)[C@H]2O)cc1 [Icariin, icariin, reference compound] | 98.8 |  | about 72 kD
COc1ccc(-c2oc3c(CC=C(C)C)c(O)cc(O)c3c(=O)c2O[C@@H]2O[C@H](C)[C@@H](O)[C@H](O)[C@@H]2O)cc1 [Example 1, icariside II] | 38.2 | 1.97 ± 0.25 | about 60 kD
COc1ccc(-c2oc3c(CC=C(C)C)c(O)cc(O)c3c(=O)c2O[C@@H]2O[C@H](C)[C@@H](O)[C@H](O)[C@@H]2O)cc1 [Example 5, icariside II] | 37.8 |  | 
COc1ccc(-c2oc3c(CC=C(C)C)c(O)cc(O)c3c(=O)c2O[C@@H]2O[C@H](C)[C@@H](O)[C@H](O)[C@@H]2O)cc1 [Example 2, icariside II] | 38.8 |  | 
COc1ccc(-c2oc3c(CC=C(C)C)c(O)cc(O)c3c(=O)c2O[C@@H]2O[C@H](C)[C@@H](O)[C@H](O)[C@@H]2O)cc1 [Example 4, icariside II] | 37.9 |  | 
OC[C@H]1NC[C@H](O)[C@@H](O)[C@@H]1O [Deoxynojirimycin, deoxynojirimycin, reference compound] | 41.1 |  | about 60 kD
